pKi: −log10 of the molar value.
Molecular target: 5-hydroxytryptamine receptor 2A (Rattus norvegicus, UniProt P14842)
Assay: Binding affinity towards 5-hydroxytryptamine 2A receptor sites by using [3H]ketanserin as radioligand

Sequence of 5-hydroxytryptamine receptor 2A (P14842 whole entry): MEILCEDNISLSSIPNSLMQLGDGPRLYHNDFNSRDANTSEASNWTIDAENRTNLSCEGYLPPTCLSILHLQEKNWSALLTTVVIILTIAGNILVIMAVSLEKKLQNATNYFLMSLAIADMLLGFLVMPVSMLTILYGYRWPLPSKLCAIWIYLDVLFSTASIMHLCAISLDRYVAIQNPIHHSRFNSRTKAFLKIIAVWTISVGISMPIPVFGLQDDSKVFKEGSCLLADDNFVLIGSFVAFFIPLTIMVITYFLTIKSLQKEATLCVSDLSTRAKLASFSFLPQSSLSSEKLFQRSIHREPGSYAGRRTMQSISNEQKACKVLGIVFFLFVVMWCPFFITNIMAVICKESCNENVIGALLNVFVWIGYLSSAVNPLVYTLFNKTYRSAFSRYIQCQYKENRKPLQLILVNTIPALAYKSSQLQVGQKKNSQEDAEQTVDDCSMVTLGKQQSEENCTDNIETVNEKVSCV

SMILES	pKi
CCCCCCc1cc(OC)c(CC(C)N)cc1OC (stereo unspecified)	8.60
COc1ccc2c(c1)CCc1ccccc1C2CN (stereo unspecified)	6.10
CCCCCCc1ccc2c(c1)CCc1ccccc1C2CN (stereo unspecified)	6.20
COc1ccc2c(c1)Cc1ccccc1C2CN (stereo unspecified)	8.12
NCC1c2ccccc2Cc2cc(CCCc3ccccc3)ccc21 (stereo unspecified)	8.49
COc1cc(CC(C)N)c(OC)cc1CCCc1ccccc1 (stereo unspecified)	8.00
COc1cc(OC)c(OC)cc1CC(C)N (stereo unspecified)	5.92
NCC1c2ccccc2CCc2cc(CCCc3ccccc3)ccc21 (stereo unspecified)	7.09
NCC1c2ccccc2Cc2cc(Br)ccc21 (stereo unspecified)	8.89
CCCCCCc1ccc2c(c1)Cc1ccccc1C2CN (stereo unspecified)	8.15
NCC1c2ccccc2CCc2cc(Br)ccc21 (stereo unspecified)	7.43
